Like-named read-outs stand apart in the source and are kept apart here.

The subject of data set [1] is Plasmodium falciparum. Further details: method as in PMID 8513873. Particulars: Figure 1, (S,R) vs (R,S) MQ, (+)- vs (-)-ENP; cited from earlier work.
Data set [2] concerns PfW2. Further details: method as in PMID 8513873. Particulars: Figure 1; cited from earlier work.
Data set [3] deals with Plasmodium falciparum 3D7 strain. Further details: method as in earlier work. As to conditions: SYBR Green I, strain with decreased susceptibility to MQ; previously determined for 2a-b, 3a-b and reference molecules; read-out: IC50 Pf3D7; cited from earlier work.
Data set [4] concerns HepG2 cell line. The experiment in a line: In vitro cytotoxicity, MTT assay on HepG2. In kind it is cell-based, human. Particulars: for Selectivity Index HepG2/3D7: CC50 on HepG2 / IC50 against Pf3D7; for SI times higher than that of parental drug MQ: versus MQ. Here is the method: (§1) Briefly, in 96-well plates, 100 µL of a cell culture adjusted to 25,000 cells/mL was dispensed and the plates were incubated at 37 °C in a humidified 5% CO2 atmosphere for 24 h to allow the cells to adhere to the bottom of the wells. After microscopic verification of the adherent cells, the culture medium was removed and replaced with 100 μL of medium with the compounds at various concentrations dissolved in DMSO (final concentration less than 0.5% v/v), and the plates were incubated for 72 h at 37 °C. Controls were DMSO in medium (0.5% v/v) without compound as blank. Then, the supernatant from each well was removed prior to the addition of 100 µL of 3-(4,5-dimethyl-2-thiazolyl)-2,5-diphenyl-2H-tetrazolium bromide (MTT) solution (0.5 mg/mL in culture medium) per well. After 2 h of incubation, the supernatant from each well was removed and 100 µL of DMSO was added to dissolve the resulting blue formazan crystals accumulated at the bottom of the wells. The plates were incubated for 5 min at 37 °C in a humidified 5% CO2 atmosphere. Then, the wells were homogenized by shaking the plates for 10 min with a microplate shaker. The absorbance was read using the Tecan’s Sunrise™ absorbance microplate reader at 570 nm with 630 nm as the reference wavelength. […] Selectivity index (SI) was calculated and defined as the ratio between CC50 values on HepG2 and IC50.
(In general: Tetrazolium assays rely on reduction of a dye to a coloured formazan, in cell work by metabolically active cells.)

A short description of data set [5]: In vitro cytotoxicity, MTT assay on HepG2. Particulars: human, HepG2 cells; MTT, 72 h incubation; mean ± SD of three experiments. The class given is cell-based, human. Here is the method:
as §1

Data set [6] has as its system β-hematin formation. As to the kind of experiment: Inhibition of β-hematin formation. As to conditions: for Inhibition (%) of β-hematin formation at 2 mM: 24 h at 37 °C, versus negative control, mean ± SD of three experiments; for IC50: concentration range 0–2 mM, determined graphically. In kind it is biochemical. Here is the method: Briefly, 100 μL of a fresh 6.5 mM solution of hemin (Sigma-Aldrich, SaintQuentin Fallavier, France) dissolved in 0.2 M NaOH was mixed with 100 μL of 3 M sodium acetate, 25 μL of 17.4 M acetic acid and 25 μL of the tested drug or controls (water and MeOH/DMSO). Magnetic stirring of the solution was used to avoid sedimentation. After 24 h incubation at 37 °C under shaking, the supernatant resulting from centrifugation for 15 min at 3300× g was discarded. The pellet was washed twice with 200 μL DMSO. After a final wash with water, the pellet was dissolved in 200 μL with 0.1 M NaOH. After a further 1:30 dilution, absorption at 405 nm was read using a microplate photometer (Multiskan® EX, Thermo Scientific, Waltham, MA, USA). CQ, MQ, ENP (considered as positive controls), water and MeOH/DMSO (considered as negative controls) were included in each experiment. […] Statistical significance was defined as a value of p ≤ 0.05.

Data set [7] has as its system Plasmodium falciparum W2 strain. Further details: method as in earlier work. Particulars: SYBR Green I, CQ-resistant strain; previously determined for 2a-b, 3a-b and reference molecules; read-out: IC50 PfW2; cited from earlier work.
The test system of data set [8] is PfD6. Further details: method as in PMID 8513873. As to conditions: Figure 1; cited from earlier work.
Data set [9] deals with Plasmodium falciparum 3D7 strain. As to the kind of experiment: In vitro antimalarial activity, SYBR Green I fluorescence-based method, Pf3D7. As to conditions: for IC50: Plasmodium falciparum, 3D7, SYBR Green I, 48 h incubation, strain with decreased susceptibility to MQ, 1a-b re-assayed here, mean ± SD of three experiments; for Eudysmic Ratio Pf3D7: ratio of IC50s of the enantiomer pair, eutomer configuration in parentheses. In kind it is cell-based. The text has this:
(§2) IC50s, corresponding to in vitro antimalarial activity against PfW2 and Pf3D7, was previously determined for compounds 2a-b, 3a-b and reference molecules using the SYBR Green I fluorescence-based method. As compounds 1a-b were previously screened using the hypoxanthine-tritied method, they were here re-assayed with the SYBR Green I fluorescence-based method described elsewhere for comparison with the other two Series (2 and 3) and reference molecules. When possible, eudysmic ratios were calculated. The SYBR green I fluorescence-based method is detailed below.
(§3) Compounds were dissolved in DMSO and then diluted in sterile water in order to obtain a range of concentrations from 40 nM to […] for the first screening against culture-adapted Plasmodium falciparum reference strains 3D7 and W2. […] These two strains were obtained from the collection of the National Museum of Natural History (Paris, France). The parasites were cultivated in RPMI medium (Sigma-Aldrich, Saint Quentin Fallavier, France) supplemented with 0.5% Albumax I (Life Technologies Corporation, Paisley, UK), hypoxanthine (Sigma-Aldrich, Saint Quentin Fallavier, France) and gentamicin (Sigma-Aldrich, Saint Quentin Fallavier, France) with human erythrocytes and were incubated at 37 °C with 5% CO2 [26]. The P. falciparum drug susceptibility test was carried out in 96-well flat-bottomed sterile plates in a final volume of 250 μL. After a 48 h incubation period with the drugs, quantities of DNA in treated and control cultures of parasites in human erythrocytes were quantified using the SYBR Green I (Sigma-Aldrich, Saint Quentin Fallavier, France) fluorescence-based method. Briefly, after incubation, the plates were frozen at −20 °C until use. The plates were then thawed for 2 h at room temperature, and 100 μL of each homogenized culture was transferred to a well of a 96-well flat-bottomed sterile black plate (Sigma-Aldrich, Saint Quentin Fallavier, France) that contained 100 μL of the SYBR Green I lysis buffer (2xSYBR Green, 20 mM Tris base pH 7.5, 5 mM EDTA, 0.008% w/v saponin, 0.08% w/v Triton X-100). Negative controls treated with solvent (typically DMSO or H2O) and positive controls (CQ and MQ) were added to each set of experiments. Plates were incubated for 1 h at room temperature and then read on a fluorescence plate reader (Tecan Trading AG, Männedorf, Switzerland) using excitation and emission wavelengths of 485 and 535 nm, respectively.

For data set [10], the system named is Plasmodium falciparum W2 strain. As to the kind of experiment: In vitro antimalarial activity, SYBR Green I fluorescence-based method, PfW2. In kind it is cell-based. Particulars: for IC50: Plasmodium falciparum, W2, SYBR Green I, 48 h incubation, CQ-resistant strain, 1a-b re-assayed here, mean ± SD of three experiments; for Eudysmic Ratio PfW2: ratio of IC50s of the enantiomer pair, eutomer configuration in parentheses.
Text: as §2, §3

Data set [11] has as its system hemozoin formation. Particulars: according to different studies; cited from earlier work.

As for `OC(c1cc(-c2ccc(C(F)(F)F)cc2)nc(C(F)(F)F)c1)C1CCCCN1` (stereo not drawn) [Enpiroline, enpiroline, reference compound], the “IC50 ratio between enantiomers” value in [1] is given as 1.15–1.22 times. For the same compound, the IC50 in data set [2] was 0.00285 µM; in [3] it was 0.0216 ± 0.0014 µM; in data set [6] it was greater than 2000 µM; in [7], 0.0115 ± 0.0023 µM; in [8] it was 0.0164 µM. The “Selectivity Index HepG2/3D7” value in data set [4] turned out to be 204. The cytotoxic concentration (CC50) at 72 h in data set [5] was found to be 4.4 ± 0.6 µM. Moreover, the “Inhibition (%) of β-hematin formation at 2 mM” value (“Inhibition (%)” for short) in data set [6] is 20.3 ND ^c %.

In the case of `CCCCNC[C@H](O)c1cc(C(F)(F)F)nc2c(C(F)(F)F)cccc12` [1b], in data set [9], the midpoint of inhibition, the IC50, lay at 0.0151 ± 0.0034 µM and the “Eudysmic Ratio Pf3D7” value was determined as 1. For the same compound, in data set [10], the IC50 was 0.0073 ± 0.0009 µM and the “Eudysmic Ratio PfW2” value is recorded as 1.46 (S). Besides, in [4], the “Selectivity Index HepG2/3D7” value was 2503 and the “SI times higher than that of parental drug MQ” value is on record as 15–23 times. In [5], half-maximal cytotoxicity (CC50 at 72 h) was put at 37.8 ± 1.9 µM. In addition, in data set [6], the “Inhibition (%)” value is given as 71.3 ± 10.3% and the half-inhibitory concentration (IC50) came to 1310 ± 540 µM.

Take `CCCCNC[C@H](O)c1ccc(-c2ccc(C(F)(F)F)cc2)nc1C(F)(F)F` [3b]: in [9], the “Eudysmic Ratio Pf3D7” value is recorded as 2.9 (S). The IC50 is 1.38 ± 0.993 µM in [3], greater than 2000 µM in data set [6] and 0.523 ± 0.0958 µM in [7]. Also, the “Eudysmic Ratio PfW2” value in data set [10] is 4.0 (S). In addition, the “Selectivity Index HepG2/3D7” value in [4] is on record as greater than 72. In addition, the CC50 at 72 h in data set [5] was greater than 100 µM. The “Inhibition (%)” value in data set [6] came out at 40.6 ± 28.3%.

As to `CCCCNC[C@@H](O)c1cc(-c2ccc(C(F)(F)F)cc2)nc(C(F)(F)F)c1` [2a], the “Eudysmic Ratio Pf3D7” value in [9] is recorded as 1.2 (S). Besides, the half-maximal inhibitory concentration (IC50) in [3] is 0.0458 ± 0.0023 µM; in data set [6] it was 1450 ± 300 µM; in data set [7], 0.009 ± 0.0004 µM. Also, in [10], the “Eudysmic Ratio PfW2” value is 1.1 (S). Further, in data set [4], the “Selectivity Index HepG2/3D7” value came out at 87. The compound further had a 50% cytotoxic concentration (CC50) at 72 h in [5] of 4 ± 0.9 µM. The “Inhibition (%)” value in data set [6] was 73.5 ± 18.0%.

For the compound `CCCCNC[C@H](O)c1cc(-c2ccc(C(F)(F)F)cc2)nc(C(F)(F)F)c1` [2b], the “Eudysmic Ratio Pf3D7” value in data set [9] is 1.2 (S). In addition, the half-maximal inhibitory concentration (IC50) in [3] was 0.0567 ± 0.0048 µM; in data set [6], 1770 ± 220 µM; in data set [7], 0.01 ± 0.0007 µM. The “Eudysmic Ratio PfW2” value in [10] is 1.1 (S). Besides, in data set [4], the “Selectivity Index HepG2/3D7” value is 70. The compound also displayed a 50% cytotoxic concentration (CC50) at 72 h in [5] of 4 ± 0.7 µM. Further, the “Inhibition (%)” value in data set [6] is listed as 54.0 ± 22.7%.

`CCCCNC[C@@H](O)c1ccc(-c2ccc(C(F)(F)F)cc2)nc1C(F)(F)F` [3a]: the figures for the IC50 in [3], in data set [6] and in [7] were 0.479 ± 0.0382 µM, greater than 2000 µM and 0.132 ± 0.0103 µM, respectively. For the same compound, in data set [4], the “Selectivity Index HepG2/3D7” value was determined as 24. Further, the CC50 at 72 h in data set [5] is 11.6 ± 0.7 µM. Also, the “Inhibition (%)” value in data set [6] is 48.3 ND ^c %.

Consider `OC(c1cc(C(F)(F)F)nc2c(C(F)(F)F)cccc12)C1CCCCN1` (stereo not drawn) [Mefloquine, mefloquine, reference compound], for which the half-inhibitory concentration (IC50) in data set [2] is 0.0039 µM; in data set [3] it was 0.0797 ± 0.0085 µM; in data set [7], 0.0318 ± 0.001 µM; in data set [8] it was 0.0344 µM. This compound had a CC50 at 72 h in data set [5] of 8.6 ± 2.6 µM. Moreover, in data set [6], the “Inhibition (%)” value is recorded as 61.3 ± 8.5%.

As to `CCN(CC)CCCC(C)Nc1ccnc2cc(Cl)ccc12` (stereo not drawn) [Chloroquine, chloroquine, reference compound], the IC50 in [3] was 0.0759 ± 0.003 µM; in data set [7] it was 0.199 ± 0.027 µM. Also, in data set [11], the “inhibition of in vitro hemozoin formation” value was “up to 90%”.

In the case of `CCCCNC[C@@H](O)c1cc(C(F)(F)F)nc2c(C(F)(F)F)cccc12` [1a], in data set [9], the half-inhibitory concentration (IC50) was determined as 0.0151 ± 0.0033 µM and the “Eudysmic Ratio Pf3D7” value is given as 1. Moreover, in data set [10], the half-maximal inhibitory concentration (IC50) was found to be 0.005 ± 0.0003 µM and the “Eudysmic Ratio PfW2” value is 1.46 (S). In addition, in [4], the “Selectivity Index HepG2/3D7” value stood at 1695 and the “SI times higher than that of parental drug MQ” value was 15–23 times. In addition, half-maximal cytotoxicity in [5] (CC50 at 72 h) was put at 25.6 ± 2.7 µM. Further, in data set [6], the “Inhibition (%)” value stood at 81.8 ± 8.4% and the midpoint of inhibition, the IC50, lay at 1170 ± 320 µM.

What is called IC50 is the midpoint of a concentration-inhibition curve. A word on the CC50: it is the concentration giving 50% cytotoxicity. Low values mean harm at low concentration, high ones better tolerance by the cells.

Source of the values: PMC11678906, “Evaluation of In Vitro Inhibition of β-Hematin Formation: A Step Towards a Comprehensive Understanding of the Mechanism of Action of New Arylamino Alcohols” (Microorganisms, 2024).
